Measured values taken from US20140161748A1, “METHODS FOR TREATING SUN-EXPOSED SKIN” (UNIVERSITY OF MANITOBA, priority 2011, published 2014).

Experiments:
Fibroblast cells = conditions: fibroblasts, doses 0, 0.01, 0.1 and 1 μM
Protocol: Fibroblast cells were plated at different densities, and exposed to UVC for various time (0 s, 10 s, 60 s and 360 s), then incubated for another 24 h, 48 h or 72 h (PIT). MTT assay was used to evaluate cell viability.

fibroblasts [1] = system: fibroblasts
Protocol: Cultures were examined after 24, 48, and 72 hours after treatment with 0, 0.01, 0.1, 10, or 100 μM of Quetiapine.

fibroblasts [2] = system: fibroblasts; remark: listed apart in the source
Protocol: (§1) Fibroblasts were exposed to varying intensities of UVB, 0, 20, 40 and 60 mJ/cm^2 and were examined 24, 48 or 72 hours after. […] MMP-1 or matrix metalloproteinase-1 is an enzyme that is involved in the breakdown of the extracellular matrix in normal physiological processes such as embryonic development, reproduction and tissue modeling. It is also responsible for breaking down collagen. proCOL1A1 is one component that makes up a molecule of type 1 collagen, which is found in most connective tissue, including the skin.

proCOL1A1 = conditions: 0.1 μM; UVB 20 mJ/cm^2; compared to UVB control cells
Protocol: as §1

SKH-1 mice [3] = system: SKH-1 mice
Protocol: (§2) Ten female SKH-1 mice were obtained from Jackson Laboratory. They were 9 weeks old at the start of the experiment.
(§3) Animals were ordered at 7 weeks of age and half were pretreated with quetiapine (10 mg/kg dissolved in drinking water) for two weeks prior to commencement of UV exposure. The other half were left untreated. Quetiapine was obtained in powder form (batch 1677) from Avlon Works, in Bristol, England, a production site for the pharmaceutical company AstraZeneca. All mice were exposed three times a week for a total of 10 weeks. Exposure intensity was 90 mJ/cm and exposure duration was 7.5 minutes. […] Excessive damage to the skin was not the goal of this study. The lamp used was manufactured by UVP (Upland, Calif., model UVLM-28).
(§4) Animals were free moving in a standard cage, with the light positioned about 30 cm above them. The intensity was measured and animals were not placed under the light until it had reached a stable value.
Skin samples were taken from the dorsal region (along the midline of the mouse close to the hindlimbs) of each mouse using a 6 mm dermal biopsy punch.
Three histological stains were used. Each stain was prepared by the histology technician in the Department of Human Anatomy and Cell Science at the University of Manitoba. Hematoxylin and Eosin (H&E) was used to examine skin structure. Van Gieson stain was used to examine collagen structure, and Verhoeff-Van Gieson stain was used to examine both collagen and elastin fibres.
Skin samples from all animals were embedded in paraffin wax blocks using standard techniques and sectioned at a thickness of 5 microns.
Staining with Hematoxylin and Eosin.
Staining with Van Gieson.
Staining with Verhoeff-Van Gieson.

SKH-1 mice [4] = conditions: 10 mg/kg in drinking water; after 2 weeks of UV treatment; vs untreated mice
Protocol: as §2, §3, §4

fibroblasts [5] = conditions: UVB and Quetiapine for 48 hours
[6] = 10 mg/kg in drinking water, UV three times a week for 10 weeks

OCCOCCN1CCN(C2=Nc3ccccc3Sc3ccccc32)CC1 [Quetiapine, 2-(2-(4-dibenzo[b,f][1,4]thiazepine-11-yl-1-piperazinyl)ethoxy)ethanol]
prevention of UVC induced cytotoxicity (Fibroblast cells): did not prevent UVC induced cytotoxicity regardless of the dose given
cytotoxic effect on fibroblasts (fibroblasts [1]; fibroblast cultures examined 24, 48 and 72 hours after treatment): cytotoxic effect on fibroblasts at high concentrations
survival at 1, 10, and 100 μM (fibroblasts [1]; fibroblasts, 1, 10 and 100 μM): decreased further
concentration at which survival started becoming affected (fibroblasts [1]; fibroblasts, 24, 48, 72 hours, 0-100 μM): 100 nM
alleviation of UVB induced cell viability (MTT assay) (fibroblasts [2]): not to alleviate UVB induced cell viability
proCOL1A1 content in cell lysates (proCOL1A1): significantly increase
collagen appearance (Van Gieson) (SKH-1 mice [3]; [6]): darker staining and uniform, intact appearance of collagen bands
elastic fibre number and structure (Verhoeff-Van Gieson) (SKH-1 mice [3]; [6]): better preservation of elastic fibre number and structure
epidermis thickness (Hematoxylin and Eosin) (SKH-1 mice [3]; [6]): increased thickness in the untreated group compared to control and quetiapine treated animals
UV induced collagen breakdown and formation of abnormal elastic fibres (summary) (SKH-1 mice [3]; chronically UV exposed mice): appears to prevent UV induced collagen breakdown and the formation of abnormal elastic fibres
skin irritation (SKH-1 mice [4]): less irritation
skin redness (SKH-1 mice [4]): less redness
effect on cell death (PI-Hoechst 33342 staining) (fibroblasts [5]): no effect on cell death
